Test system: Tetranvchus urticae (Two-Spotted Spider Mite)
Assay: Tetranychus urticae bean leaf disc spray test, mobile stages mortality after 8 days, with COLBY expected action
Format: in vivo
Details: for DMET observed control %: DMET alone; for C8 observed control %: C8 alone; for SPAT observed control %: SPAT alone
Source text: The action to be expected E for a given active ingredient combination obeys the so-called COLBY formula and can be calculated as follows (COLBY, S. R. “Calculating synergistic and antagonistic responses of herbicide combination”. Weeds, Vol. 15, pages 20-22; 1967):
According to COLBY, the expected (additive) action of active ingredients A)+B) using p+q ppm of active ingredient is
If the action actually observed (O) is greater than the expected action (E), then the action of the combination is super-additive, i.e. there is a synergistic effect. In mathematical terms the synergism factor SF corresponds to O/E. In the agricultural practice an SF of ≧1.2 indicates significant improvement over the purely complementary addition of activities (expected activity), while an SF of ≦0.9 in the practical application routine signals a loss of activity compared to the expected activity.
Tetranvchus urticae (Two-Spotted Spider Mite)
Bean leaf discs on agar in 24-well microtiter plates are sprayed with test solutions (DMSO). After drying, the leaf discs are infested with mite populations of mixed ages. 8 days later, discs are checked for mobile stages (I removed “mixed population”) mortality.
Columns 4 and 5 show the control observed from the compounds alone. […] When a compound applied alone gave no control at a particular rate, it is assumed that lower rates of that compound alone also give no control. DMET=deltamethrin, SPAT=spirotetramat, C8=compound 8 in Table C.

CC1(C)[C@H](C(=O)O[C@H](C#N)c2cccc(Oc3ccccc3)c2)[C@@H]1C=C(Br)Br [DMET, deltamethrin]
DMET observed control % (0.39 ppm): 0%
DMET observed control % (0.781 ppm): 0%
DMET observed control % (1.562 ppm): 0%
DMET observed control % (3.125 ppm): 0%
DMET observed control % (6.25 ppm): 75%
DMET observed control % (12.5 ppm): 80%
DMET observed control % (25 ppm): 90%
DMET observed control % (50 ppm): 90%

CCC(=O)NC1CCc2cc(C3=NOC(c4cc(Cl)cc(Cl)c4)(C(F)(F)F)C3)ccc21 (racemic) [C8]
C8 observed control % (0.094 ppm, Table 1): 0%
C8 observed control % (0.187 ppm, Table 1): 0%
C8 observed control % (0.375 ppm, Table 1): 0%
C8 observed control % (0.375 ppm, Table 2): 0%
C8 observed control % (0.75 ppm, Table 1): 25%
C8 observed control % (0.75 ppm, Table 2): 55%
C8 observed control % (1.5 ppm, Table 1): 65%
C8 observed control % (1.5 ppm, Table 2): 80%
C8 observed control % (3.0 ppm, Table 2): 95%
C8 observed control % (6.0 ppm, Table 2): 95%

CCOC(=O)OC1=C(c2cc(C)ccc2C)C(=O)N[C@]12CC[C@@H](OC)CC2 [SPAT, spirotetramat]
SPAT observed control % (1.56 ppm): 0%
SPAT observed control % (3.125 ppm): 0%
SPAT observed control % (3.25 ppm): 0%
SPAT observed control % (6.25 ppm): 25%
SPAT observed control % (12.5 ppm): 65%
SPAT observed control % (25 ppm): 80%
SPAT observed control % (50 ppm): 85%
SPAT observed control % (100 ppm): 85%
SPAT observed control % (.25 ppm): 80%
